# From ChEMBL document CHEMBL1201862, “PubChem BioAssay data set” (2004)
#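 Each compound was tested at five concentrations against cells in 96-well plates for 48 hours. GI50 marks 50% less growth.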 Activity calls are given as the source filed them. Rule as the data show it: active = GI50 up to about 1.1 µM and inactive = higher.
# Key:
# Experiment in all cases: NCI tumour cell line growth inhibition, 48 h
# HCT-15 = tested on: HCT-15
# IGROV-1 = tested on: IGROV-1
# CCRF-CEM = tested on: CCRF-CEM
# OVCAR-8 = tested on: OVCAR-8
# A498 = tested on: A498
# PC-3 = tested on: PC-3
# KM12 = tested on: KM12
# HOP-62 = tested on: HOP-62
# NCI/ADR-RES = tested on: NCI/ADR-RES
# HCC 2998 = tested on: HCC 2998
# Hs-578T = tested on: Hs-578T
# COLO 205 = tested on: COLO 205
# SK-MEL-2 = tested on: SK-MEL-2
# MDA-MB-435 = tested on: MDA-MB-435
# 786-0 = tested on: 786-0
# SK-MEL-28 = tested on: SK-MEL-28
# NCI-H460 = tested on: NCI-H460
# DU-145 = tested on: DU-145
# HL-60 = tested on: HL-60
Structure (SMILES),GI50 (HCT-15),GI50 (IGROV-1),GI50 (CCRF-CEM),GI50 (OVCAR-8),GI50 (A498),GI50 (PC-3),GI50 (KM12),GI50 (HOP-62),GI50 (NCI/ADR-RES),GI50 (HCC 2998),GI50 (Hs-578T),GI50 (COLO 205),GI50 (SK-MEL-2),GI50 (MDA-MB-435),GI50 (786-0),GI50 (SK-MEL-28),GI50 (NCI-H460),GI50 (DU-145),GI50 (HL-60)
O=C1CC(=O)NC(NN2C(=O)CSC2c2ccc(Cl)cc2)=N1 (stereo not given),> 100 µM,> 100 µM (inactive),25.7 µM (inactive),91.6 µM (inactive),> 100 µM (inactive),> 100 µM (inactive),32.8 µM (inactive),24.9 µM (inactive),> 100 µM (inactive),> 100 µM (inactive),25.6 µM (inactive),> 100 µM (inactive),> 100 µM (inactive),> 100 µM (inactive),37.2 µM (inactive),> 100 µM (inactive),51.3 µM (inactive),> 100 µM (inactive),
Cc1ncc([N+](=O)[O-])n1CCNC(=O)CCC(=O)NCCCn1ccnc1[N+](=O)[O-],> 100 µM,> 100 µM (inactive),> 100 µM (inactive),> 100 µM (inactive),> 100 µM (inactive),> 100 µM (inactive),> 100 µM (inactive),> 100 µM (inactive),> 100 µM (inactive),,> 100 µM (inactive),> 100 µM (inactive),> 100 µM (inactive),> 100 µM (inactive),> 100 µM (inactive),> 100 µM (inactive),> 100 µM (inactive),> 100 µM (inactive),> 100 µM (inactive)
O=C(Cn1c2ccc(Br)cc2c2nc3ccccc3nc21)NCc1ccccc1,> 100 µM,67 µM (inactive),> 100 µM (inactive),23.4 µM (inactive),31.2 µM (inactive),> 100 µM (inactive),> 100 µM (inactive),23 µM (inactive),> 100 µM (inactive),> 100 µM (inactive),22.1 µM (inactive),> 100 µM (inactive),25.3 µM (inactive),> 100 µM (inactive),13 µM (inactive),> 100 µM (inactive),> 100 µM (inactive),> 100 µM (inactive),
O=C1CN2C(c3ccccc3)=NN(c3ccc([N+](=O)[O-])cc3)C2(c2ccccc2)c2cc(Cl)ccc2N1CC1CC1 (stereo not given),> 100 µM,> 100 µM (inactive),> 100 µM (inactive),> 100 µM (inactive),> 100 µM (inactive),7.6 µM (inactive),> 100 µM (inactive),> 100 µM (inactive),> 100 µM (inactive),> 100 µM (inactive),> 100 µM (inactive),> 100 µM (inactive),,> 100 µM (inactive),> 100 µM (inactive),> 100 µM (inactive),> 100 µM (inactive),> 100 µM (inactive),< 0.01 µM (active)
Cn1c2c(c3ccccc31)CC(=S)N1CCCC(CC2O)C1 (stereo not given),> 100 µM,,,> 100 µM (inactive),> 100 µM (inactive),> 100 µM (inactive),> 100 µM (inactive),,> 100 µM (inactive),> 100 µM (inactive),> 100 µM (inactive),> 100 µM (inactive),> 100 µM (inactive),> 100 µM (inactive),> 100 µM (inactive),> 100 µM (inactive),> 100 µM (inactive),> 100 µM (inactive),
CCOc1ccc(Nc2nc(N)nc(N)c2N)cc1,38.9 µM,11.6 µM (inactive),20.2 µM (inactive),45.2 µM (inactive),> 100 µM (inactive),45.3 µM (inactive),23.7 µM (inactive),24.7 µM (inactive),37 µM (inactive),,18.2 µM (inactive),27.9 µM (inactive),44.9 µM (inactive),25.1 µM (inactive),22.3 µM (inactive),> 100 µM (inactive),29.1 µM (inactive),> 100 µM (inactive),39.1 µM (inactive)
COc1ccccc1N1C(=O)CS(=O)(=O)C1c1cccc(Oc2ccccc2)c1 (stereo not given),12.1 µM,,25.8 µM (inactive),16.5 µM (inactive),18.9 µM (inactive),12.2 µM (inactive),15.7 µM (inactive),18.6 µM (inactive),16.9 µM (inactive),,19.1 µM (inactive),16.1 µM (inactive),13 µM (inactive),4.26 µM (inactive),18.3 µM (inactive),17.5 µM (inactive),15.2 µM (inactive),23.9 µM (inactive),12.7 µM (inactive)
CCOc1ccc2nc(NC(=O)/C(CC(=O)CC(C3=C(O)c4ccccc4CC3=O)c3ccccc3)=N\O)sc2c1 (stereo not given),> 100 µM,> 100 µM (inactive),> 100 µM (inactive),> 100 µM (inactive),> 100 µM (inactive),> 100 µM (inactive),> 100 µM (inactive),,> 100 µM (inactive),> 100 µM (inactive),> 100 µM (inactive),> 100 µM (inactive),> 100 µM (inactive),> 100 µM (inactive),> 100 µM (inactive),> 100 µM (inactive),> 100 µM (inactive),> 100 µM (inactive),> 100 µM (inactive)
O=c1n(CCCN2CCOCC2)nc2n1-c1ccc3ccccc3c1SC2,27.7 µM,> 100 µM (inactive),45.5 µM (inactive),64.9 µM (inactive),89.9 µM (inactive),38.6 µM (inactive),47.3 µM (inactive),52.2 µM (inactive),67.5 µM (inactive),,37.6 µM (inactive),1.43 µM (inactive),65.8 µM (inactive),49 µM (inactive),16 µM (inactive),36.5 µM (inactive),30.2 µM (inactive),87.9 µM (inactive),31.1 µM (inactive)
COP(=O)(O)/C=C/C(NC(=O)C(Cl)(Cl)Cl)c1ccccc1 (stereo not given),> 100 µM,> 100 µM (inactive),,> 100 µM (inactive),> 100 µM (inactive),> 100 µM (inactive),> 100 µM (inactive),> 100 µM (inactive),> 100 µM (inactive),> 100 µM (inactive),> 100 µM (inactive),> 100 µM (inactive),> 100 µM (inactive),> 100 µM (inactive),> 100 µM (inactive),> 100 µM (inactive),> 100 µM (inactive),> 100 µM (inactive),> 100 µM (inactive)
CC(=O)O[C@@H]1[C@@H](C)[C@]2(CC(c3ccoc3)OC2O)C2CCC3O[C@]3(C)[C@]2(C)[C@@H]1OC(C)=O (stereo not given in full),25.4 µM,41.8 µM (inactive),18.2 µM (inactive),37.2 µM (inactive),95.1 µM (inactive),32.8 µM (inactive),23.8 µM (inactive),,40.2 µM (inactive),,48.5 µM (inactive),20.3 µM (inactive),57.4 µM (inactive),43.6 µM (inactive),19.2 µM (inactive),25.9 µM (inactive),29.7 µM (inactive),48.1 µM (inactive),18 µM (inactive)
CC1(C)[N+]([O-])=[N+]([O-])C1(Br)c1ccccc1 (stereo not given),64.6 µM,> 100 µM (inactive),39.9 µM (inactive),> 100 µM (inactive),,> 100 µM (inactive),89.1 µM (inactive),> 100 µM (inactive),43.9 µM (inactive),> 100 µM (inactive),> 100 µM (inactive),> 100 µM (inactive),> 100 µM (inactive),> 100 µM (inactive),68.9 µM (inactive),> 100 µM (inactive),68.2 µM (inactive),79.1 µM (inactive),33 µM (inactive)
CNC/C(Cl)=N/S(=O)(=O)c1ccc(C)cc1,16.1 µM,17.2 µM (inactive),,18.9 µM (inactive),20 µM (inactive),9.59 µM (inactive),13.8 µM (inactive),14 µM (inactive),26.1 µM (inactive),4.74 µM (inactive),28.8 µM (inactive),17.5 µM (inactive),15 µM (inactive),6.15 µM (inactive),9.93 µM (inactive),31.6 µM (inactive),8.17 µM (inactive),5.07 µM (inactive),
CN1CCN(CN2C(=O)C3C4C=CC(C3C2=O)C2C(=O)N(CN3CCN(C)CC3)C(=O)C42)CC1 (stereo not given),34 µM,50.6 µM (inactive),28.6 µM (inactive),> 100 µM (inactive),,> 84.5 µM (inactive),56.5 µM (inactive),> 54.1 µM (inactive),> 60.4 µM (inactive),> 57.4 µM (inactive),> 100 µM (inactive),54.6 µM (inactive),> 100 µM (inactive),> 74.6 µM (inactive),54 µM (inactive),> 42.9 µM (inactive),> 53.8 µM (inactive),17.8 µM (inactive),20.5 µM (inactive)
COCC[N+](CCNC(=O)c1cccc2c(N)c3cccc(C)c3nc12)(CCOC)Cc1ccc([N+](=O)[O-])cc1,41.8 µM,11.1 µM (inactive),6.15 µM (inactive),26.6 µM (inactive),,9.53 µM (inactive),14.5 µM (inactive),31.8 µM (inactive),88.3 µM (inactive),4.92 µM (inactive),10.8 µM (inactive),16.1 µM (inactive),28.8 µM (inactive),30 µM (inactive),19.1 µM (inactive),13.8 µM (inactive),6.47 µM (inactive),17 µM (inactive),12.9 µM (inactive)
COC1(c2ccc(Cl)cc2)SC=C(C)n2c1noc2=O (stereo not given),> 100 µM,> 100 µM (inactive),> 100 µM (inactive),,> 100 µM (inactive),> 100 µM (inactive),86.9 µM (inactive),,10.5 µM (inactive),> 100 µM (inactive),> 100 µM (inactive),> 100 µM (inactive),,> 100 µM (inactive),> 100 µM (inactive),> 100 µM (inactive),> 100 µM (inactive),> 100 µM (inactive),> 100 µM (inactive)
